Tests used:
human TLR7 = molecular target: T1, human TLR7 (Homo sapiens, UniProt Q9NYK1); test: HEK-Blue hTLR7 NF-κB/AP-1 SEAP reporter assay; assay type: cell-based; conditions: HEK-Blue hTLR7 cells, 10 μg/mL to 10 pg/ml, 24 hours, OD at 655 nm, FIG. 1
T1 construct: host or cells: HEK293 (HEK-Blue™ hTLR7)
T1 sequence (Q9NYK1 27-1049): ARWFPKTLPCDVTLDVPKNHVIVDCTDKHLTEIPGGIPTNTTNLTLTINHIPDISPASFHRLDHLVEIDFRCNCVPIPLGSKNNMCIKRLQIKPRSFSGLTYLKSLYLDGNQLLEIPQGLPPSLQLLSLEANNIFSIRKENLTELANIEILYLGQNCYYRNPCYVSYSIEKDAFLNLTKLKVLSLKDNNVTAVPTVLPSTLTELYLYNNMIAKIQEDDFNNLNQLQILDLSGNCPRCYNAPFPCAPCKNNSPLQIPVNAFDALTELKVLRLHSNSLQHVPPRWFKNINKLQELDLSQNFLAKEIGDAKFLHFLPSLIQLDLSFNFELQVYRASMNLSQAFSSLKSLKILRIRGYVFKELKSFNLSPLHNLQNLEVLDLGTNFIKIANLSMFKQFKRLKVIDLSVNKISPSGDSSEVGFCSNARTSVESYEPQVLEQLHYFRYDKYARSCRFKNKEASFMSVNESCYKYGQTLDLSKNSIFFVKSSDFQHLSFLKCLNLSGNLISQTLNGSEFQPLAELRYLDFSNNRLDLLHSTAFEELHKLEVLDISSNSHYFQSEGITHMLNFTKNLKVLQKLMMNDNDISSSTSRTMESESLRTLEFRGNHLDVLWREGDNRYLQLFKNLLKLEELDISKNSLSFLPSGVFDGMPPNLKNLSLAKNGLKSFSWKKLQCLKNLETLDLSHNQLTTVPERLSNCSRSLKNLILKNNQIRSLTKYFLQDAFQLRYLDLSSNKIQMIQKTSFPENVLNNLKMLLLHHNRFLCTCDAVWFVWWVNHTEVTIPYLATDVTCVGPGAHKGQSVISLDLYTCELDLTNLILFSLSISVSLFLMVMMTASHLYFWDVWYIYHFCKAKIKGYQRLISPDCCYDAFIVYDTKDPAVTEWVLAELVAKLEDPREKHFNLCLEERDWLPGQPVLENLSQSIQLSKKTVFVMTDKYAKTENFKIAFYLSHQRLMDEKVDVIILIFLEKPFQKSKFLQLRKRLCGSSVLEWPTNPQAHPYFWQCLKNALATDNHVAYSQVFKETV
Summary of the method: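 HEK293 cells stably expressing the given TLR, or RAW 264.7-derived cells (50,000 or 100,000 cells/well respectively), carry an NF-κB/AP-1-inducible SEAP reporter. Conjugated TLR7-TLR2 agonists at final 10 μg/mL to 10 pg/ml, 24 h at 37° C. SEAP read colorimetrically as OD at 655 nm in detection medium.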

[1] = system: ISG54 promoter activity in RAW-ISG54 reporter cells; test: IFN response assay, RAW-ISG54 luciferase reporter cells; assay type: cell-based, mouse; conditions: in complexes with pDNA 3:24 (w:w), overnight, FIG. 6A
Procedure: (§1) The effect of the pDNA:TLR7-TLR2 polyamine molecules complexes on inducing an interferon response was examined. pDNA:TLR7-TLR2 polyamine molecules mixtures (pDNA:TLR7-TLR2 polyamine molecules ratio 3:24, w:w) in serum-free medium or 5% glucose were prepared as described above and added to IFN reporter cells. Luciferase reporter cell lines were used to assay interferon response. A plasmid containing an interferon-inducible luciferase reporter gene was introduced into mouse RAW 264.7 macrophages and mouse B16 melanoma cells, giving rise to the RAW-ISG54 and B16-ISG54 reporter cell lines respectively. Expression of the luciferase reporter gene by the plasmid is under the control of an interferon-inducible promoter (I-ISG54) comprising five interferon-stimulated response elements (ISRE) and the minimal promoter of the human ISG-54K (Interferon Stimulation of a Gene encoding a 54 kDa protein) gene. The ISG-54K gene is induced by interferon regulatory factor 3 (IRF3), which has a key involvement in […] responses (Grandvaux et al. 2002) and the minimal promoter of the human ISG-54K gene contains two ISRE sites and fully inducible by type I interferons (IFN-α and IFN-β) and interferon regulatory factors (IRFs) (Wathelet et al. 1988; Grandvaux et al. 2002).
(§2) The RAW-ISG54 and B16-ISG54 reporter cell lines were seeded onto 96 well microtiter plates at 100,000 cells per well and 75,000 cells per well respectively. Cells were cultured in DMEM supplemented with 10% (v/v) heat inactivated fetal bovine serum (30 min at 56° C.), 4.5 g/I glucose, 2 mM L-glutamine, 50 U/ml penicillin, 50 μg/ml streptomycin, 100 μg/ml Normocin™ (InvivoGen) together with pDNA:TLR7-TLR2 polyamine complexes at 37° C. overnight. pDNA:TLR7-TLR2 polyamine molecules complexes were prepared as described above prior to adding to the IFN reporter cells. The induced luciferase expression was assessed in the reporter cell lines using a coelenterazine-base luminescence assay reagent, the Quanti-Luc™ (InvivoGen). Secreted luciferase activity was determined by bioluminescence quantification of the cell culture media using a microplate luminometer (FLUOstar OPTIMA from BMG Labtech).

[2] = system: ISG54 promoter activity in B16-ISG54 reporter cells; test: IFN response assay, B16-ISG54 luciferase reporter cells; assay type: cell-based, mouse; conditions: in complexes with pDNA 3:24 (w:w), overnight, FIG. 6B
Procedure: as §1, §2

Compound	ability to activate hTLR7 (human TLR7)	ability to induce an IFN response in RAW-ISG54 reporter cells [1]	ability to induce an IFN response in B16-ISG54 reporter cells [2]
(6S,9S,12S,15S,18S,21R)-6,25-diamino-21-(4-((6-amino-2-(butylamino)-8-hydroxy-9H-purin-9-yl)methyl)phenylcarbamoyl)-12,15,18-tris(4-aminobutyl)-9-(hydroxyl methyl)-7,10,13,16,19-pentaoxo-4-thia-8,11,14,17,20-pentaazapentacosane-1,2-diyl dipalmitate [CL413]	activate hTLR7	induce an IFN response in RAW-ISG54 reporter cells	induce an IFN response in B16-ISG54 reporter cells
CCCCCCCCCCCCCCCC(=O)OCC(CSC[C@H](N)C(=O)N[C@@H](CCC(=O)NCCCNCCCCNCCCN)C(=O)Nc1ccc(Cn2c(O)nc3c(N)nc(NCCCC)nc32)cc1)OC(=O)CCCCCCCCCCCCCCC (stereo partly drawn) [CL527, (6R,9S)-6,25-diamino-9-(4-((6-amino-2-(butylamino)-8-hydroxy-9H-purin-9-yl)methyl)phenylcarbamoyl)-7,12-dioxo-4-thia-8,13,17,22-tetraazapentacosane-1,2-diyl dipalmitate]	activate hTLR7	induce an IFN response in RAW-ISG54 reporter cells	induce an IFN response in B16-ISG54 reporter cells
CCCCCCCCCCCCCCCC(=O)N[C@@H](CSCC(COC(=O)CCCCCCCCCCCCCCC)OC(=O)CCCCCCCCCCCCCCC)C(=O)N[C@@H](CO)C(=O)N[C@@H](CCCCN)C(=O)N[C@@H](CCCCN)C(=O)N[C@@H](CCCCN)C(=O)N[C@@H](CCCCN)C(=O)Nc1ccc(Cn2c(O)nc3c(N)nc(NCCCC)nc32)cc1 (stereo partly drawn) [CL534, ((6R,9S,12S,15S,18S,21S)-25-amino-21-(4-((6-amino-2-(butylamino)-8-hydroxy-9H-purin-9-yl)methyl)phenylcarbamoyl)-12,15,18-tris(4-aminobutyl)-9-(hydroxylmethyl)-7,10,13,16,19-pentaoxo-6-palmitamido-4-thia-8,11,14,17,20-pentaazapentacosane-1,2-diyl dipalmitate]	activate hTLR7	–	–
CCCCCCCCCCCCCCCC(=O)OCC(CSC[C@H](N)C(=O)N[C@@H](COC(=O)c1ccc(Cn2c(O)nc3c(N)nc(NCCCC)nc32)cc1)C(=O)NCCCNCCCCNCCCN)OC(=O)CCCCCCCCCCCCCCC (stereo partly drawn) [CL514, (6R,9S)-6,23-diamino-9-((4-((6-amino-2-(butylamino)-8-hydroxy-9H-purin-9-yl)methyl)benzoyloxy)methyl)-7,10-dioxo-4-thia-8,11,15,20-tetraazatricosane-1,2-diyl dipalmitate]	activate hTLR7	induce an IFN response in RAW-ISG54 reporter cells	induce an IFN response in B16-ISG54 reporter cells
CCCCCCCCCCCCCCCC(=O)OCC(CSC[C@H](N)C(=O)NCCCNCCCCNCCCNC(=O)CNC(=O)c1ccc(Cn2c(O)nc3c(N)nc(NCCCC)nc32)cc1)OC(=O)CCCCCCCCCCCCCCC (stereo partly drawn) [CL553, (20R)-20-amino-1-(4-((6-amino-2-(butylamino)-8-hydroxy-9H-purin-9-yl)methyl)phenyl)-1,4,19-trioxo-22-thia-2,5,9,14,18-pentaazapentacosane-24,25-diyl dipalmitate]	activate hTLR7	induce an IFN response in RAW-ISG54 reporter cells	induce an IFN response in B16-ISG54 reporter cells

Reference: patent publication US9295732B2, “Conjugated TLR7 and/or TLR8 and TLR2 polycationic agonists” (CAYLA, priority 2013, dated 2016)
